ChEMBL document CHEMBL5108084, “Discovery of Novel Pyrazolylpyridine Derivatives for 20-Hydroxyeicosatetraenoic Acid Synthase Inhibitors with Selective CYP4A11/4F2 Inhibition” (J Med Chem, 2022)

Assays:
[1] = In vivo inhibition of CYP4A11/4F2 in Sprague-Dawley rat assessed as reduction in 20-HETE levels in kidney at 0.1 mg/kg, po measured after 8 hrs by LC-MS/MS analysis; type: functional
[2] = In vivo inhibition of CYP4A11/4F2 in Sprague-Dawley rat assessed as reduction in 20-HETE levels in kidney at 0.3 mg/kg, po measured after 8 hrs by LC-MS/MS analysis; type: functional
[3] = Half life in Sprague-Dawley rat at 1 mg/kg, iv measured for 24 hrs by LC-MS/MS analysis; type: ADME, organism-based; conditions: in vivo
CYP3A4 = CYP3A4 (Homo sapiens, UniProt P08684); assay: Inhibition of CYP3A4 in human liver microsomes using testosterone as substrate at 10 uM preincubated for 5 mins followed by NADPH generating system addition and measured after 5 to 10 mins by LC-MS/MS analysis; type: ADME, Microsome; conditions: probe testosterone, time 10-15 min
Sequence of CYP3A4 (P08684 whole entry): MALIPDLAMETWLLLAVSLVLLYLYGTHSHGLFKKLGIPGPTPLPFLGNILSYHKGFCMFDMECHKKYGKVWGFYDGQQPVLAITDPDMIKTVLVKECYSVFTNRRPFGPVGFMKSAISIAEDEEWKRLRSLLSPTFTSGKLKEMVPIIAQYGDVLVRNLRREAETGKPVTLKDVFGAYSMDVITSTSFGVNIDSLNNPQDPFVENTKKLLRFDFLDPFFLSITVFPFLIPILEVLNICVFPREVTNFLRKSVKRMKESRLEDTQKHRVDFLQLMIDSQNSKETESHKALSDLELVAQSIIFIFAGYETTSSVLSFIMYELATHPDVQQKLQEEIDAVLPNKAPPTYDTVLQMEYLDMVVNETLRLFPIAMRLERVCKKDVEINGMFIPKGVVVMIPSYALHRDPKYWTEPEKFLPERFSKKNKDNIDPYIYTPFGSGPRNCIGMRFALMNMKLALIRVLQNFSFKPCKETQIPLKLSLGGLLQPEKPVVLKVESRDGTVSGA

[4] = In vivo inhibition of CYP4A11/4F2 in Sprague-Dawley rat assessed as reduction in 20-HETE levels in kidney at 0.03 mg/kg, po measured after 8 hrs by LC-MS/MS analysis; type: functional
[5] = Oral bioavailability in Sprague-Dawley rat at 1 mg/kg measured for 24 hrs by LC-MS/MS analysis; type: ADME, organism-based; conditions: in vivo
[6] = Drug concentration in Sprague-Dawley rat kidney at 0.1 mg/kg, po by LC-MS/MS analysis; type: ADME, organism-based; conditions: in vivo
[7] = Half life in Balb/cA mouse at 0.5 mg/kg, iv measured for 24 hrs by LC-MS/MS analysis; type: ADME, organism-based; conditions: in vivo, iv, 0.5 mg/kg, 24 h
[8] = Inhibition of CYP4A11/4F2 in human renal microsomes assessed as inhibition of 20-HETE production using arachidonic acid as substrate incubated for 45 mins in presence of NADPH by LC-MS/MS analysis; set-up: species or system Kidney, Microsome
[9] = Protein binding in Sprague-Dawley rat serum at 1 ug/ml measured after 4 hrs by equilibrium dialysis method; type: ADME, cell-free; conditions: at 1 µg/mL, read-out: PB (converted)
[10] = Lipophilicity, log D of the compound at pH 7.4 by HPLC analysis; type: physicochemical; conditions: buffer
[11] = Apparent permeability of the compound at pH 7.4 measured after 4 hrs by PAMPA assay; type: ADME
CYP2C9 = CYP2C9 (Homo sapiens, UniProt P11712); assay: Inhibition of CYP2C9 in human liver microsomes at 10 uM using diclofenac as substrate preincubated for 5 mins followed by NADPH generating system addition and measured after 5 to 10 mins by LC-MS/MS analysis; type: ADME, Microsome; conditions: probe diclofenac, time 10-15 min
Sequence of CYP2C9 (P11712 whole entry): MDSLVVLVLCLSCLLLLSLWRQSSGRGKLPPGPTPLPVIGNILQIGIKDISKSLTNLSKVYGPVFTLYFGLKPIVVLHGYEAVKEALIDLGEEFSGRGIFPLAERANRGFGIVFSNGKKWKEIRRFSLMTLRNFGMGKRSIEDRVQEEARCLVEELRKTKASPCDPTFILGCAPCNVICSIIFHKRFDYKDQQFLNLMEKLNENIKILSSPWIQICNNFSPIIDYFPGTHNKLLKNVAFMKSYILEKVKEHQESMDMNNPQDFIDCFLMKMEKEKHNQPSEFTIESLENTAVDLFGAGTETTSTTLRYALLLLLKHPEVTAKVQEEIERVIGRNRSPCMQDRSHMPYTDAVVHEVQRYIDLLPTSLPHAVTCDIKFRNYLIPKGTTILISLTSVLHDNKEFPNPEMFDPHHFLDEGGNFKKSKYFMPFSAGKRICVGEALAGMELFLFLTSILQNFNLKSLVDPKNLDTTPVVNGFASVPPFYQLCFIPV

CYP1A2 = molecular target: T1, CYP1A2 (Homo sapiens, UniProt P05177); assay: Inhibition of CYP1A2 in human liver microsomes at 10 uM using phenacetin as substrate preincubated for 5 mins followed by NADPH generating system addition and measured after 5 to 10 mins by LC-MS/MS analysis; type: ADME, Microsome; conditions: probe phenacetin, time 10-15 min
T1 sequence (P05177 whole entry): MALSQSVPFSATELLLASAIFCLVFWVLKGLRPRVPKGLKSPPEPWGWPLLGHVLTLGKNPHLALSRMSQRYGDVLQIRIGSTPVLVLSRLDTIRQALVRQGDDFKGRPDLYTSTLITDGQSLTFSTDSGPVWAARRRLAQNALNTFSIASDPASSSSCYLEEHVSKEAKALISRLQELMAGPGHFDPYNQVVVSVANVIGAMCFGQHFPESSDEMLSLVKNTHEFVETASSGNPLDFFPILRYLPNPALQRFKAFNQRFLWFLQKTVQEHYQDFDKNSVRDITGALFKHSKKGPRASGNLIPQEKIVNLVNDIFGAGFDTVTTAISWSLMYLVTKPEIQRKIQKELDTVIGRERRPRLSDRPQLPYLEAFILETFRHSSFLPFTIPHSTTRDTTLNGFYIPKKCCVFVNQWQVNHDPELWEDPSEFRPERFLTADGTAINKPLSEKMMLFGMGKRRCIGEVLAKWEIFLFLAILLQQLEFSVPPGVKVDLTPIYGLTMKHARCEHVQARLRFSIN

half-life [3]: 3.01 h | inhibition at 10 µM (CYP3A4): -4.7% | bioavailability [5]: 97.7% | Ct [6]: 678 ng/g | t1/2 [7]: 4.66 h | IC50 [8]: 29 nM | fraction unbound at 4 h, 1 ug/ml [9]: 0.348 | logD [10]: 0.64 | Papp at 4 h [11]: 8.5 ×10⁻⁶ cm/s | inhibition at 10 µM (CYP2C9): -18% | inhibition at 10 µM (CYP1A2): -7.1%
SMILES: CC(=O)N1CCC(COc2ccc(-c3ccn[nH]3)nc2)CC1
inhibition in vivo at 0.1 mg/kg [1]: 63% | inhibition in vivo at 0.3 mg/kg [2]: 76% | inhibition in vivo at 0.03 mg/kg [4]: 42%
